According to patent publication US10179355B2, “Bioremediation enhancing agents and methods of use” (JRW BIOREMEDIATION, LLC, priority 2007, dated 2019):

What was measured:
[1] = system: dechlorinating bacteria known to convert PCE to ethene; test: Set C: Nutrient Comparisons, PCE dechlorination microcosms (kinetics, Relative Rate); format: cell-based, Dehalococcoides and Dehalobacter spp.
Excerpt: Certain contaminated materials (or sites) may contain indigenous microbial communities that are sufficient for complete bioremediation of contaminants. For such sites, there is no need to add microbes unless the indigenous microbes are genetically deficient in achieving the desired clean-up goals. For those sites that are microbiologically limited, microorganisms may be added to the contaminated materials (or sites). In one embodiment, the inoculum may be a mixed culture of halo-respiring bacteria that have been enriched to reach an optimal cell density. These mixed cultures of halo-respiring bacteria may be typically obtained from sediment samples from rivers, streams or any waterways. More specifically, the inoculum used in the Examples was originated from a Sangamon River sediment sample (Lodge Park, Piatt County, Ill.) See, e.g., Brennan, R. A., Sanford, R. A. and Werth, C. J. (2006). “Biodegradation of Tetrachloroethene by Chitin Fermentation Products in a Continuous Flow Column System.” Journal of Environ. Engr., June 665-673. This culture had grown for several years on PCE, anaerobic basal salts medium, Wolfe's vitamin solution and various electron donors including lactate (1-2 millimolar (mM)), formate (4 mM) and chitin using the Volatile Interface Transfer Apparatus (VITA) reactor system at the University of Illinois. Brennan, R. A., and Sanford, R. A. (2002). “Continuous steady-state method using Tenax for delivering tetrachloroethene to chlororespiring bacteria.” Appl. Environ. Microbiol., 68(3), 1464-1467. […] Using 16S rRNA gene-specific primers, both Dehalococcoides and Dehalobacter spp. were detected. Quantitative real-time PCR has been used to determine that approximately 1.65×10^7 Dehalococcoides gene copies were present per ml of culture.
For purpose of this disclosure, each bottle may be started with a certain amount of PCE. At subsequent times each bottle may be sampled for the degradation daughter products of PCE, namely trichloroethene (TCE), cis-dichloroethene (DCE), vinyl chloride (VC) and ethene, etc. Trans-DCE and 1,1-DCE are also daughter products of PCE, but they may not be detectable under the conditions disclosed here.
The rate of degradation may be determined by calculating the number of pmoles of chloride ions removed from PCE and subsequently from the amounts of the daughter products generated. The calculation may be performed as follows: Chloride (μmoles)=[…]−4×PCE (μmoles)−3×TCE (pmoles)−2×DCE (μmoles)−VC (μmoles)
Next, the dechlorination rate may be determined for each bottle at each time by dividing the Chloride generated by the time (days). The data may be then normalized to the lactate control by taking the ratio of Chloride Rate (pmoles/day) and the Lactate Control Chloride Rate (pmoles/day). This ratio is called Relative Rate and is dimensionless.
As shown in the Examples, a paired t-test has been conducted to calculate the probability that the Relative Rate of one group (i.e. with Nutrient) is greater than the other group (i.e. without Nutrient). The null hypothesis is that the underlying means of the two paired groups are equal. The Probability that one group has higher Relative Rates than the other group is shown in various tables in the Examples.
The following components were used in the system for bioremediating contaminated ground water microcosms in Examples 2-8: • 160 milliliter (ml) stoppered serum bottles • 100 ml of anaerobic culture medium, groundwater containing an excess of bioavailable phosphorus and nitrogen at 0.5 mM Phosphate and 1 mM ammonium degassed with a nitrogen sparge • Nominally 1 gram of limestone • 19.54 micromoles (pmoles) Perchloroethene (PCE) • An excess of various electron donors were utilized • 3 ml of inoculum containing dechlorinating bacteria known to convert PCE to ethene. […]

[2] = system: dechlorinating bacteria known to convert PCE to ethene; test: Set B: Efficiency of electron donor utilization by COD analysis; format: cell-based, Dehalococcoides and Dehalobacter spp.
Excerpt: Sets B, C, D, E, and G further contain figures and tables showing results of the characterization of the Efficiency and the Relative Efficiency of electron donor usage. Efficiency may be defined as the percent of electron donor utilized for dechlorination, and may be calculated by dividing the pmoles of Chloride ion generated by the pmoles of electron donor consumed as measured by either Volatile Fatty Acid (VFA) analysis (Sets B, C, and G) or Chemical Oxygen Demand (COD) analysis (Set D and E). The Relative Efficiency of the electron donor utilization may be defined as the Efficiency of the Electron Donor divided by the Efficiency of the Lactate Control.
Table 10 and FIG. 9 show the efficiency of electron donor (e^−) utilization as measured by COD analysis. The COD analysis calculates the utilization of electron donor by measuring the starting COD and the final COD taking the difference and converting mg/L to pmoles of electrons. The pmoles of electrons used for dechlorination was determined from the calculated Chloride produced leading to an Efficiency and Relative Efficiency of electron donor utilization as compared to lactate.

SMILES: CC(O)C(=O)[O-].[Na+] (centres unmarked) [Lactate Control, sodium lactate]
- Average Relative Rate [1]: 1.00
- Cl^− Rate ± s.d. ([1]; 0 days): 0.00 ± 0.00 µmol
- Cl^− ± s.d. ([1]; 0 days): 0.00 ± 0.00 µmol
- DCE ± s.d. ([1]; 0 days): 0.00 ± 0.00 µmol
- Ethene ± s.d. ([1]; 0 days): 0.00 ± 0.00 µmol
- PCE ± s.d. ([1]; 0 days): 19.54 ± 0.00 µmol
- TCE ± s.d. ([1]; 0 days): 0.00 ± 0.00 µmol
- VC ± s.d. ([1]; 0 days): 0.00 ± 0.00 µmol
- Cl^− Rate ± s.d. ([1]; 21 days): 2.43 ± 0.13 µmol
- Cl^− ± s.d. ([1]; 21 days): 51.01 ± 2.69 µmol
- DCE ± s.d. ([1]; 21 days): 5.05 ± 0.62 µmol
- Ethene ± s.d. ([1]; 21 days): 0.09 ± 0.02 µmol
- PCE ± s.d. ([1]; 21 days): 0.66 ± 0.52 µmol
- TCE ± s.d. ([1]; 21 days): 1.20 ± 1.01 µmol
- VC ± s.d. ([1]; 21 days): 10.83 ± 1.56 µmol
- Cl^− Rate ± s.d. ([1]; 35 days): 1.36 ± 0.03 µmol
- Cl^− ± s.d. ([1]; 35 days): 47.71 ± 1.16 µmol
- DCE ± s.d. ([1]; 35 days): 2.02 ± 1.88 µmol
- Ethene ± s.d. ([1]; 35 days): 0.54 ± 0.29 µmol
- PCE ± s.d. ([1]; 35 days): 0.00 ± 0.00 µmol
- TCE ± s.d. ([1]; 35 days): 0.00 ± 0.00 µmol
- VC ± s.d. ([1]; 35 days): 26.41 ± 2.65 µmol
- Cl^− Rate ± s.d. ([1]; 49 days): 1.03 ± 0.01 µmol
- Cl^− ± s.d. ([1]; 49 days): 50.42 ± 0.27 µmol
- DCE ± s.d. ([1]; 49 days): 0.00 ± 0.00 µmol
- Ethene ± s.d. ([1]; 49 days): 3.79 ± 1.31 µmol
- PCE ± s.d. ([1]; 49 days): 0.00 ± 0.00 µmol
- TCE ± s.d. ([1]; 49 days): 0.00 ± 0.00 µmol
- VC ± s.d. ([1]; 49 days): 27.74 ± 0.27 µmol
- Relative Rate ([1]; bottle 1, 21 days): 1.06
- Relative Rate ([1]; bottle 1, 35 days): 1.02
- Relative Rate ([1]; bottle 1, 49 days): 1.00
- Relative Rate ([1]; bottle 2, 21 days): 0.99
- Relative Rate ([1]; bottle 2, 35 days): 0.97
- Relative Rate ([1]; bottle 2, 49 days): 0.99
- Relative Rate ([1]; bottle 3, 21 days): 0.95
- Relative Rate ([1]; bottle 3, 35 days): 1.00
- Relative Rate ([1]; bottle 3, 49 days): 1.01
- % of e^− used for dechlor. [2]: 13.1%
- Chloride ([2]; Efficiency by COD analysis): 77.16 pmol
- Relative Efficiency ([2]; relative to Lactate Control): 100%
